# Measurements as given in US8367655B2, “Pyridoindolobenzox—and thiazepine derivatives and uses thereof” (Daya Drug Discoveries, Inc., priority 2009, dated 2013).
# What was measured:
# 5-HT2A receptor = 5-HT2A receptor (Homo sapiens, UniProt P28223); assay: Serotonin and dopamine receptor binding: 5-HT2A
# 5-HT2C receptor = target: T1, 5-HT2C receptor (Homo sapiens, UniProt P28335); assay: Serotonin and dopamine receptor binding: 5-HT2C
# T1 sequence (P28335 33-458): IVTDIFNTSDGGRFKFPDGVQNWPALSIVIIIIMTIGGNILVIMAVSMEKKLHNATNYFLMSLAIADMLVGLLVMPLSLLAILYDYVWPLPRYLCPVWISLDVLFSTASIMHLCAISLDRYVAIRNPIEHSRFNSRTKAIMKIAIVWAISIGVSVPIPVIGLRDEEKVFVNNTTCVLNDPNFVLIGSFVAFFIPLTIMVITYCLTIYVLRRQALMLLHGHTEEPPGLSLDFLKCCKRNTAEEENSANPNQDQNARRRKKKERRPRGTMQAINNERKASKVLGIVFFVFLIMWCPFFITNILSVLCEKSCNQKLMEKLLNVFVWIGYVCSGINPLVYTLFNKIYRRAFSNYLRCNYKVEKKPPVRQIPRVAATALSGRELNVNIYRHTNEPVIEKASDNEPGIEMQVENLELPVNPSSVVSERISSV
# D2 receptor = D2 receptor (Homo sapiens, UniProt P14416); assay: Serotonin and dopamine receptor binding: D2
# rats [1] = assay: Amphetamine-induced sensorimotor gating deficits (prepulse inhibition, PPI); format: in vivo; settings: 1 mg/kg ip, amphetamine 3 mg/kg ip, 120 dB pulse, 71 dB pre-pulse, p<0.01
# Method: Effects of compound 2 on amphetamine-induced sensorimotor gating deficits (FIG. 4 Table). Once the compound 2 dose range was determined by motor assessments, a separate group of rats were used to study PPI. Rats were treated with vehicle (75% DMSO) or DDD-016 in the DMSO vehicle; 30 min later amphetamine (3 mg/kg ip) or saline was administered, and the startle session was initiated after an additional 30 min. (The 3 mg/kg dose of amphetamine is sufficient to induced robust deficits in PPI; 1 mg/kg is subtrheshold; data not shown.) Shown are startle data from a 120 dB pulse, preceded 100 ms by a 71 dB pre-pulse.
# rats [2] = assay: Pilot dose-selection study (catalepsy, locomotion); format: in vivo
# rats [3] = assay: Amphetamine-induced motor activity; format: in vivo
# Method: Effects of compound 2 on amphetamine-induced motor activity (FIG. 4 Graph). All rats were habituated to the motor box for 30 min followed by injection of compound 2 or vehicle. After 30 min all rats were injected with 1 mg/kg, i.p. amphetamine (a dose that is known to elevate locomotion in rats) and their motor activity was recorded for 2 hr.
# Sequence of D2 receptor (P14416 whole entry): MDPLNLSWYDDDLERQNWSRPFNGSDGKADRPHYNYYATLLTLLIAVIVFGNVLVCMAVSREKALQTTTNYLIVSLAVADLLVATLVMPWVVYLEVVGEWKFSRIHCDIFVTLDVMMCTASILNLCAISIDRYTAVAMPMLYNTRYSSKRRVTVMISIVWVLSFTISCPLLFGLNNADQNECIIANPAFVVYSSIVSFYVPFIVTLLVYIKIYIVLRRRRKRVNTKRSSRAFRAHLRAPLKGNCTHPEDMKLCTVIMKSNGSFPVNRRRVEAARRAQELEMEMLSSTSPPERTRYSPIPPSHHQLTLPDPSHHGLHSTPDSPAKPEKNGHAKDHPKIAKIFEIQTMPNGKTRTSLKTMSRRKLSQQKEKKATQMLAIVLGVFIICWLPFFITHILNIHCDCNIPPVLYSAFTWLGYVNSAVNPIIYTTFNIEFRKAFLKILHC
# Sequence of 5-HT2A receptor (P28223 whole entry): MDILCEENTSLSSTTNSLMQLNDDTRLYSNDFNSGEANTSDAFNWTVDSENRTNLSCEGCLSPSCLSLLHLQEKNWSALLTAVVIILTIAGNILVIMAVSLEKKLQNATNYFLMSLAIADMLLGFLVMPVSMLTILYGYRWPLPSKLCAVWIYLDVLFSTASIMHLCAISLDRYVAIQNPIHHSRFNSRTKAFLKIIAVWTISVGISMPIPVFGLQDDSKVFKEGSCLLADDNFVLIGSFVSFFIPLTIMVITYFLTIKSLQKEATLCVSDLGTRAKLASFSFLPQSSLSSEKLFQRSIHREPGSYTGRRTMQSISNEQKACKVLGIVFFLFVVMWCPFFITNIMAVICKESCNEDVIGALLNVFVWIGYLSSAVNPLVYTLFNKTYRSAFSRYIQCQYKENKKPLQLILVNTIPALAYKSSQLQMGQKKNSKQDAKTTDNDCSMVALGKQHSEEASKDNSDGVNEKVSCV
IC50 (5-HT2A receptor) [nM],IC50 (5-HT2C receptor) [nM],IC50 (D2 receptor) [nM],Structure (SMILES),"receptor binding activity (in words) (5-HT2A receptor; stated jointly for 5-HT2A, 5-HT2C and D2 receptors)",effect on amphetamine-induced % PPI deficit (rats [1]),"locomotor effect (rats [2]; 3 mg/kg, vs vehicle (75% DMSO))",locomotor effect (rats [2]; 10 mg/kg),"catalepsy (rats [2]; 30 mg/kg ip, without a loss of right reflex)","horizontal activity, comparison of doses (rats [3]; 3 mg/kg vs 10 mg/kg, ANOVA with post hoc Newman Keuls, p<0.05)","effect on amphetamine-induced motor activity (rats [3]; 10 mg/kg, 30 min before 1 mg/kg i.p. amphetamine, activity recorded 2 hr)"
1,10,80,CN1CCc2c(c3cccc4c3n2-c2ccccc2CS4)C1 [Compound 2],,blunted this deficit,did not differentiate from vehicle,Some locomotor reduction,robust catalepsy,difference between 3 mg/kg and 10 mg/kg,trend for 10 mg/kg of 2 to reduce the effects of amphetamine
5,80,8,O=C(CCCN1CCc2c(c3cccc4c3n2-c2ccccc2CS4)C1)c1ccc(F)cc1 [Compound 6],,,,,,,
8,50,500,CN1CCc2c(c3cccc4c3n2-c2ccccc2CO4)C1 [Compound 9],,,,,,,

Structure (SMILES),IC50 (5-HT2A receptor) [nM],IC50 (5-HT2C receptor) [nM],IC50 (D2 receptor) [nM],"receptor binding activity (in words) (5-HT2A receptor; stated jointly for 5-HT2A, 5-HT2C and D2 receptors)",effect on amphetamine-induced % PPI deficit (rats [1]),"locomotor effect (rats [2]; 3 mg/kg, vs vehicle (75% DMSO))",locomotor effect (rats [2]; 10 mg/kg),"catalepsy (rats [2]; 30 mg/kg ip, without a loss of right reflex)","horizontal activity, comparison of doses (rats [3]; 3 mg/kg vs 10 mg/kg, ANOVA with post hoc Newman Keuls, p<0.05)","effect on amphetamine-induced motor activity (rats [3]; 10 mg/kg, 30 min before 1 mg/kg i.p. amphetamine, activity recorded 2 hr)"
CN1CC[C@@H]2[C@@H](C1)c1cccc3c1N2c1ccccc1CS3 [Compound 4],3,5,20,most potent amongst all,,,,,,
CN1CC[C@H]2[C@@H](C1)c1cccc3c1N2c1ccccc1CS3 [Compound 3],5,15,500,,,,,,,
